Test results taken from patent publication US8716279B2, “Pharmaceutical compositions of clonazepam and method of use thereof” (Jazz Pharmaceuticals, Inc., priority 2006, dated 2014).

Key:
[1] = Viscosity of solvent matrices; type: physicochemical; details: for measured viscosity: Gilmont falling ball viscometer
Description: (§1) Fourteen representative solvent matrices used for clonazepam formulations were tested for spray pattern and compared with water. The solvent mixtures were made up, spiked with minute amounts of Coomassie Brilliant Blue Dye and 100 μL were subsequently filled into Pfeiffer unit-dose devices (Pfeiffer of America, Princeton, N.J.). To measure the spray pattern, the devices were actuated below a sheet of paper that was located 3 cm above the spray nozzle. All measurements were made at ambient room temperature (20-25° C.). The smallest (Dmin) and the largest (Dmax) diameter of the blue pattern formed on the sheet of paper were measured and the results used to calculate the Dmax/Dmin ratio, the area of the pattern and the average spray angle. The plume area at 3 cm was calculated using the equation for the area of an ellipse using the half of the two diameters as the ellipse radii. Viscosity of all formulations was measured using Brookfield DV-I viscometer (Brookfield Engineering Laboratories, Inc., Middleboro, Mass.).
As weather may dictate substantially different conditions of use, the effect of temperature on viscosity was determined. A Gilmont falling ball viscometer was filled with diethylene glycol monoethyl ether and calibrated for several hours at each temperature.

[2] = Human pharmacokinetic, safety and tolerability study (oral, intravenous, intranasal cross-over); details: metabolite after 1 mg clonazepam
Description: The human pharmacokinetics, safety, and tolerability of the clonazepam compositions of the present invention formulated for intranasal delivery for therapeutic applications are evaluated using standard clinical procedures. Clonazepam compositions formulated for intranasal delivery are provided, for example, for application by the participants to intranasal mucosa.
A primary objective of initial studies in humans is to determine and compare pharmacokinetic profiles of three dosage forms of clonazepam: oral, i.v., and intranasal, following single administration. An example of such a study in humans is a cross-over study performed in 12 healthy male volunteers. Plasma and urine level of clonazepam and 7-amino-clonazepam are determined, for example, using HPLC and UV detection. […] Further the initial studies in humans are used to determine local tolerability of intranasal formulation using questionnaire and the Visual Analog Scale (VAS). VAS is a validated instrument that has been used in numerous studies to quantify subjective opening of the nasal passages. In addition, cognitive, sleepiness and mood effects are evaluated using questionnaires and scales (see, e.g., Example 10 below). Further, attention and vigilance may be evaluated using, for example, LEEDS Psychomotor Multiple Choice Reaction Time (MCRT) testing.
A human pharmacokinetic study was carried out as described in Example 8.
15 young, healthy male volunteers received a single dose of 1 mg clonazepam by oral, intravenous and intranasal routes in a three-period cross-over design.

[3] = Spray pattern of solvent matrices from Pfeiffer unit-dose devices; type: physicochemical; details: 100 μL, Pfeiffer unit-dose device, 20-25° C.
Description: as §1

CCOCCOCCO [diethylene glycol monoethyl ether, Diethylene glycol monoethyl ether]
measured viscosity ([1]; 8° C.): 5.4 cP
measured viscosity ([1]; 23° C.): 3.8 cP
measured viscosity ([1]; 40° C.): 3.1 cP
measured viscosity ([1]; −17° C.): 6.6 cP

Nc1ccc2c(c1)C(c1ccccc1Cl)=NCC(=O)N2 [7-Amino-clonazepam]
mean AUCt ([2]; intranasal route): 16.9 ng·h/mL
mean Cmax ([2]; intranasal route, 24-hour sampling): 1.17 ng/mL
mean AUCt ([2]; intravenous route): approximately 30 ng·h/mL
mean Cmax ([2]; intravenous route): approximately 2 ng/mL
mean AUCt ([2]; oral route): approximately 30 ng·h/mL
mean Cmax ([2]; oral route): approximately 2 ng/mL

O [Water]
Avg. viscosity (cP) ([1]; Brookfield DV-I viscometer, solvent matrix without clonazepam): 1.0 cP
Plume area at 3 cm (cm^2) [3]: 15.52 cm^2
Ratio Dmax/Dmin [3]: 1.10
